The values below come from BindingDB's records for doi:10.1016/0960-894X(95)00327-P (1995).

The structures appear in SMILES notation.

In the first test the target is Gastrin/cholecystokinin type B receptor (Cavia porcellus). Nature of the test: Binding activity towards cholecystokinin-B (CCK-B) receptor in guinea pig cortex.
As to `Cc1ccc2c(c1)N(CC(=O)NC(C)(C)C)C(=O)[C@H](NC(=O)Nc1cccc(-c3nnn[nH]3)c1)C[C@@H]2Cc1ccccc1` [2-((3R,5S)-5-Benzyl-8-methyl-2-oxo-3-{3-[3-(1H-tetrazol-5-yl)-phenyl]-ureido}-2,3,4,5-tetrahydro-benzo[b]azepin-1-yl)-N-tert-butyl-acetamide], the IC50 (usually the concentration that gives 50% inhibition) was determined as 1.7 nM.

`Cc1ccc2c(c1)N(CC(=O)NC(C)(C)C)C(=O)[C@H](NC(=O)Nc1cccc(C(=O)NS(=O)(=O)c3ccccc3)c1)C[C@@H]2c1ccccc1` [2-{(3R,5R)-3-[3-(3-Benzenesulfonylaminocarbonyl-phenyl)-ureido]-8-methyl-2-oxo-5-phenyl-2,3,4,5-tetrahydro-benzo[b]azepin-1-yl}-N-tert-butyl-acetamide] showed an IC50 of 4.8 nM.

Turning to `COC(=O)c1cccc(NC(=O)N[C@@H]2C[C@H](C3CCCCC3)c3ccc(C)cc3N(CC(=O)NC(C)(C)C)C2=O)c1` [3-{3-[(3R,5R)-1-(tert-Butylcarbamoyl-methyl)-5-cyclohexyl-8-methyl-2-oxo-2,3,4,5-tetrahydro-1H-benzo[b]azepin-3-yl]-ureido}-benzoic acid methyl ester], the IC50 was 0.6 nM.

`COC(=O)c1cccc(NC(=O)N[C@@H]2C[C@H](c3ccccc3)c3ccc(C)cc3N(CC(=O)NC(C)(C)C)C2=O)c1` [3-{3-[(3R,5R)-1-(tert-Butylcarbamoyl-methyl)-8-methyl-2-oxo-5-phenyl-2,3,4,5-tetrahydro-1H-benzo[b]azepin-3-yl]-ureido}-benzoic acid methyl ester] showed an IC50 of 1.4 nM.

As for `Cc1ccc2c(c1)N(CC(=O)NC(C)(C)C)C(=O)[C@H](NC(=O)Nc1cccc(C(=O)O)c1)C[C@@H]2c1ccccc1` [3-{3-[(3R,5R)-1-(tert-Butylcarbamoyl-methyl)-8-methyl-2-oxo-5-phenyl-2,3,4,5-tetrahydro-1H-benzo[b]azepin-3-yl]-ureido}-benzoic acid], the IC50 was 2.7 nM.

As to `Cc1ccc2c(c1)N(CC(=O)NC(C)(C)C)C(=O)[C@H](NC(=O)Nc1cccc(-c3nnn[nH]3)c1)C[C@@H]2C1CCCCC1` [N-tert-Butyl-2-((3R,5R)-5-cyclohexyl-8-methyl-2-oxo-3-{3-[3-(1H-tetrazol-5-yl)-phenyl]-ureido}-2,3,4,5-tetrahydro-benzo[b]azepin-1-yl)-acetamide], the IC50 was determined as 0.22 nM.

As for `Cc1ccc2c(c1)N(CC(=O)NC(C)(C)C)C(=O)[C@H](NC(=O)Nc1cccc(-c3nnn[nH]3)c1)C[C@@H]2C(C)C` [N-tert-Butyl-2-((3R,5R)-5-isopropyl-8-methyl-2-oxo-3-{3-[3-(1H-tetrazol-5-yl)-phenyl]-ureido}-2,3,4,5-tetrahydro-benzo[b]azepin-1-yl)-acetamide], the IC50 worked out at 0.98 nM.

As for `Cc1ccc2c(c1)N(CC(=O)NC(C)(C)C)C(=O)[C@H](NC(=O)Nc1cccc(-c3nnn[nH]3)c1)C[C@@H]2c1ccccc1` [N-tert-Butyl-2-((3R,5R)-8-methyl-2-oxo-5-phenyl-3-{3-[3-(1H-tetrazol-5-yl)-phenyl]-ureido}-2,3,4,5-tetrahydro-benzo[b]azepin-1-yl)-acetamide], the concentration for half-maximal inhibition (IC50) turned out to be 0.81 nM.

In turn, `Cc1ccc2c(c1)N(CC(=O)NC(C)(C)C)C(=O)[C@H](NC(=O)Nc1cccc(C(=O)NS(=O)(=O)c3ccccc3C)c1)C[C@@H]2c1ccccc1` [N-tert-Butyl-2-((3R,5R)-8-methyl-2-oxo-5-phenyl-3-{3-[3-(toluene-2-sulfonylaminocarbonyl)-phenyl]-ureido}-2,3,4,5-tetrahydro-benzo[b]azepin-1-yl)-acetamide] yielded an IC50 of 7.9 nM.

For the compound `CCS(=O)(=O)NC(=O)c1cccc(NC(=O)N[C@@H]2C[C@H](c3ccccc3)c3ccc(C)cc3N(CC(=O)NC(C)(C)C)C2=O)c1` [N-tert-Butyl-2-{(3R,5R)-3-[3-(3-ethanesulfonylaminocarbonyl-phenyl)-ureido]-8-methyl-2-oxo-5-phenyl-2,3,4,5-tetrahydro-benzo[b]azepin-1-yl}-acetamide], the IC50 is 1 nM.

In turn, `Cc1ccc2c(c1)N(CC(=O)NC(C)(C)C)C(=O)[C@H](NC(=O)Nc1cccc(C(=O)NS(C)(=O)=O)c1)C[C@@H]2c1ccccc1` [N-tert-Butyl-2-{(3R,5R)-3-[3-(3-methanesulfonylaminocarbonyl-phenyl)-ureido]-8-methyl-2-oxo-5-phenyl-2,3,4,5-tetrahydro-benzo[b]azepin-1-yl}-acetamide] showed an IC50 of 0.88 nM.

Compound `Cc1ccc2c(c1)N(CC(=O)NC(C)(C)C)C(=O)[C@H](NC(=O)Nc1cccc(C(=O)NS(C)(=O)=O)c1)C[C@@H]2C1CCCCC1` [N-tert-Butyl-2-{(3R,5R)-5-cyclohexyl-3-[3-(3-methanesulfonylaminocarbonyl-phenyl)-ureido]-8-methyl-2-oxo-2,3,4,5-tetrahydro-benzo[b]azepin-1-yl}-acetamide] returned an IC50 of 0.26 nM.

Consider `Cc1ccc2c(c1)N(CC(=O)NC(C)(C)C)C(=O)[C@H](NC(=O)Nc1cccc(C(=O)NS(=O)(=O)Cc3ccccc3)c1)C[C@@H]2c1ccccc1` [N-tert-Butyl-2-{(3R,5R)-8-methyl-2-oxo-5-phenyl-3-[3-(3-phenylmethanesulfonylaminocarbonyl-phenyl)-ureido]-2,3,4,5-tetrahydro-benzo[b]azepin-1-yl}-acetamide], for which the IC50 was found to be 4.2 nM.

Compound `Cc1ccc2c(c1)N(CC(=O)NC(C)(C)C)C(=O)[C@H](NC(=O)Nc1cccc(C(=O)NS(=O)(=O)C(F)(F)F)c1)C[C@@H]2c1ccccc1` [N-tert-Butyl-2-{(3R,5R)-8-methyl-2-oxo-5-phenyl-3-[3-(3-trifluoromethanesulfonylaminocarbonyl-phenyl)-ureido]-2,3,4,5-tetrahydro-benzo[b]azepin-1-yl}-acetamide] registered an IC50 of 5.1 nM.

The target is the same in a further test. The description is as above. The source holds these as a separate data set.
`Cc1ccc2c(c1)N(CC(=O)NC(C)(C)C)C(=O)[C@H](NC(=O)Nc1cccc(C(=O)O)c1)C[C@@H]2C1CCCCC1` [3-{3-[(3R,5R)-1-(tert-Butylcarbamoyl-methyl)-5-cyclohexyl-8-methyl-2-oxo-2,3,4,5-tetrahydro-1H-benzo[b]azepin-3-yl]-ureido}-benzoic acid]: the IC50 came out at 0.1 nM.
